According to US20230321103A1, “COMPOUND FOR INHIBITING MUTANT EGFR AND USE THEREOF” (East China University of Science and Technology, priority 2020, published 2023):

How the values were obtained:
EGFR (D770_N771insNPG) = target: T1, EGFR (D770_N771insNPG) (Homo sapiens, UniProt P00533, INS770NPG); assay: Kinase spectrum evaluation, radiometric 33P-ATP kinase assay; assay type: biochemical; details: room temperature 2 h, 10 concentration gradients
T1 construct: purchased Reaction Biology Corporation (commissioned test)
Description: (§15) The substrate for the kinase reaction was placed in a freshly prepared reaction buffer and the co-factors required for the kinase reaction were added, and the buffer was prepared as: 20 mM HEPES (pH 7.5), 10 mM MgCl2, 1 mM EGTA, 0.02% Brij35, 0.02 mg/mL BSA, 0.1 mM Na3VO4, 2 mM DTT, 1% DMSO; afterwards, the kinase to be tested was added and gently shaken. The compound to be tested was dissolved in DMSO to the desired concentration and added to the above buffer containing the kinase/substrate using an autosampler Echo550. 33P-labeled ATP (33P-ATP at a final concentration of 0.01 μCi/μL) was added to the reaction system to initiate the kinase reaction at room temperature for 2 h. […] Kinase activity data were expressed as a percentage of the remaining kinase activity in the test sample, 10 concentration gradients were measured, a curve was fitted and IC50 values were calculated using Prism4 (GraphPad software).

ERBB2 (D769Y) = target: T2, ERBB2 (D769Y) (Homo sapiens, UniProt P04626, D769Y); assay: as above; assay type: biochemical; details: room temperature 2 h, 10 concentration gradients
T2 construct: purchased Reaction Biology Corporation (commissioned test)
Description: as §15

EGFR = target: T3, EGFR (Homo sapiens, UniProt P00533); assay: as above; assay type: biochemical; details: room temperature 2 h, 10 concentration gradients
T3 construct: purchased Reaction Biology Corporation (commissioned test)
Description: as §15

EGFR (G719S) = target: T4, EGFR (G719S) (Homo sapiens, UniProt P00533, G719S); assay: as above; assay type: biochemical; details: room temperature 2 h, 10 concentration gradients
T4 construct: purchased Reaction Biology Corporation (commissioned test)
T4 sequence (P00533 25-1210 G719S): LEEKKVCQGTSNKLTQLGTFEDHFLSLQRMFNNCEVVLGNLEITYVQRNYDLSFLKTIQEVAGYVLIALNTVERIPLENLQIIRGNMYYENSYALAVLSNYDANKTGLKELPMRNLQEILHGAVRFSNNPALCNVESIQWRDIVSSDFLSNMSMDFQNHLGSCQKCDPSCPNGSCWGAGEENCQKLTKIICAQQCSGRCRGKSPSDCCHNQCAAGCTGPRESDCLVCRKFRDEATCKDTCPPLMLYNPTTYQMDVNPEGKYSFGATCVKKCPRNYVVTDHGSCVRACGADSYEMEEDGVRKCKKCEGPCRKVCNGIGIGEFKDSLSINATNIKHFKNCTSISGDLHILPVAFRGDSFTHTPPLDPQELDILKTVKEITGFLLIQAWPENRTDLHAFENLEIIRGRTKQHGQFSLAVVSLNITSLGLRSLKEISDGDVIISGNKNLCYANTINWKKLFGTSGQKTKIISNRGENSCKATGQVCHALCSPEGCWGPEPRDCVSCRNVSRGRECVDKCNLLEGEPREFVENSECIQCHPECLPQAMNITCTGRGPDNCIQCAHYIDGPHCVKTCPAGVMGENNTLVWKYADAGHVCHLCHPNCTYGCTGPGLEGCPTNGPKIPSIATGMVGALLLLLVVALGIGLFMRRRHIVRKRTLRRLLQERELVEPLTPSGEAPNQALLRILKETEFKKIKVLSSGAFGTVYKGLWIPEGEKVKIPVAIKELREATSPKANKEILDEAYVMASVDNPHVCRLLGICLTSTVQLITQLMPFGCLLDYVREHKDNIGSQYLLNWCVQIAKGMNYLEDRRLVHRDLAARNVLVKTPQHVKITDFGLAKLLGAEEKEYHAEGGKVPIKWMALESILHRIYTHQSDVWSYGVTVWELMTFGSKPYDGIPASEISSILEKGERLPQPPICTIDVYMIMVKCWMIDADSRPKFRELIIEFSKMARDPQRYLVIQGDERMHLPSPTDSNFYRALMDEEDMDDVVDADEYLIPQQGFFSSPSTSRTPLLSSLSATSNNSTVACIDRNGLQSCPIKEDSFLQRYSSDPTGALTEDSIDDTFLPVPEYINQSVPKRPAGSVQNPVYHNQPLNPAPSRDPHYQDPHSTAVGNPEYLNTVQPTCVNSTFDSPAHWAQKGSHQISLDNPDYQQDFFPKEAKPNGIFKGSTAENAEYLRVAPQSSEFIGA
Description: as §15

EGFR H773_V774insH BaF3 = assay: Proliferation inhibition assay on stable cell lines (CTG Assay); assay type: cell-based; details: Mus musculus, 72 hours, CellTiter-Glo
Text: (§1) Ba/F3, a mouse pro-B cell line dependent on interleukin-3, is a common system for studying kinases and kinase inhibitors. Recombinant expression of some protein kinases can make Ba/F3 cells no longer dependent on IL-3 for growth, and based on such properties, the inhibition of a compound on the proliferation of Ba/F3 cells expressing different target kinases can be detected, so as to reflect inhibitory effects of the compound on different kinase targets at the cellular level for kinase inhibitor screening.
(§2) CellTiter-Glo® Luminescent Cell Viability Assay was employed in this experiment to detect cell proliferation, and the specific principles are as follows:
(§3) Adenosine Tri-Phosphate (ATP) is a common energy carrier used in various life activities in nature and is the smallest unit of energy storage and transfer. In the CellTiter-Glo™ Live Cell Assay Kit, […] are used as detectors, which require the participation of ATP to generate light signals. After the CellTiter-Glo™ reagent is added to the cells, the luminescence value is measured. The light signal is proportional to the amount of ATP in the system, which is in turn positively correlated with the number of living cells. Therefore, by measuring the ATP content using the CellTiter-Glo kit, the viability of the cells and thus the level of cell proliferation can be reflected.
(§4) Cells were removed from the liquid nitrogen, quickly thawed in a water bath at 37 degree Celsius, lyophilization tubes were centrifuged at 1000 rpm, the supernatant of the lyophilized solution was discarded, and the cells were resuspended in RPMI1640+10% FBS medium and incubated in a cell culture incubator at 37 degree Celsius with a cell culture density maintaining at 2*10e5 to 2*10e6/ml at all times.
(§5) 1) The compound were serially diluted in DMSO in a compound formulation plate with a starting concentration of 1 or 10 mM and a gradient dilution of 3.
(§6) 2) A new compound formulation plate was prepared, 198 ul of RPMI160+10% FBS medium was added to each well, 2 ul/well of compound from the previous gradient-diluted compound formulation plate was transferred to this plate and mixed well, so that the highest starting compound concentration in this plate was […], and diluted by gradient (this plate was a 10* compound concentration dilution plate).
(§7) 1) Cells in logarithmic growth phase were taken, the supernatant was discarded by centrifugation, and the cells were re-suspended in a fresh RPMI1640 medium at a cell density of 2*10e4/ml.
(§8) 2) The re-suspended cells were inoculated into 2 96-well cell culture plates with white walls and clear bottom at 100 ul of cell suspension/well, and incubated overnight in a 37° C. cell incubator.
(§9) 3) The next day, one of the 96-well plates inoculated with cells were taken, 100 µl/well of cell titer glo assay reagent was added for 60 minutes, the value was read and defined as G0 data.
(§10) 4) Another parallel plate was taken, 11.1 ul/well of compound from the previously diluted 10* compound concentration dilution plate was added to this plate, so that the final concentration of compound in the cell assay plate started from 0.5 or 1 uM, which was 3-fold diluted for 9 concentration gradients. Additional DMSO control wells were set, and incubated in a 37° C. cell incubator for another 72 hours.
(§11) 5) The 96-well plate, in which cells were treated by the compound for 72 hrs, were taken from the incubator, 100 ul/well of cell titer glo assay reagent was added for 60 minutes, the value was read and defined as G3 data.
(§12) 6) The cell proliferation rate corresponding to each well was calculated according to the following formula
(§13) % prolifation=(G3 of the well of the compound to be tested−mean value of G)/(mean value of G3 of the DMSO control well−mean value of G0)*100.
(§14) Y=Bottom+(Top−Bottom)/(1+10^((Log IC50−X)*HillSlope))

EGFR L861Q BaF3 = assay: as above; assay type: cell-based; details: Mus musculus, 72 hours, CellTiter-Glo
Text: as §1, §2, §3, §4, §5, §6, §7, §8, §9, §10, §11, §12, §13, §14

[1] = tested on: EGFR V769_D770insASV BaF3; assay: as above; assay type: cell-based; details: Mus musculus, 72 hours, CellTiter-Glo
Text: as §1, §2, §3, §4, §5, §6, §7, §8, §9, §10, §11, §12, §13, §14

EGFR G719A BaF3 = assay: as above; assay type: cell-based; details: Mus musculus, 72 hours, CellTiter-Glo
Text: as §1, §2, §3, §4, §5, §6, §7, §8, §9, §10, §11, §12, §13, §14

[2] = tested on: EGFR D770_N771insSVD BaF3; assay: as above; assay type: cell-based; details: Mus musculus, 72 hours, CellTiter-Glo
Text: as §1, §2, §3, §4, §5, §6, §7, §8, §9, §10, §11, §12, §13, §14

[3] = tested on: EGFR D770_N771insNPG BaF3; assay: as above; assay type: cell-based; details: Mus musculus, 72 hours, CellTiter-Glo
Text: as §1, §2, §3, §4, §5, §6, §7, §8, §9, §10, §11, §12, §13, §14

EGFR (L858R) = target: T5, EGFR (L858R) (Homo sapiens, UniProt P00533, L858R); assay: Kinase spectrum evaluation, radiometric 33P-ATP kinase assay; assay type: biochemical; details: room temperature 2 h, 10 concentration gradients
T5 construct: purchased Reaction Biology Corporation (commissioned test)
Description: as §15

EGFR (G719C) = target: T6, EGFR (G719C) (Homo sapiens, UniProt P00533, G719C); assay: as above; assay type: biochemical; details: room temperature 2 h, 10 concentration gradients
T6 construct: purchased Reaction Biology Corporation (commissioned test)
T6 sequence (P00533 25-1210 G719C): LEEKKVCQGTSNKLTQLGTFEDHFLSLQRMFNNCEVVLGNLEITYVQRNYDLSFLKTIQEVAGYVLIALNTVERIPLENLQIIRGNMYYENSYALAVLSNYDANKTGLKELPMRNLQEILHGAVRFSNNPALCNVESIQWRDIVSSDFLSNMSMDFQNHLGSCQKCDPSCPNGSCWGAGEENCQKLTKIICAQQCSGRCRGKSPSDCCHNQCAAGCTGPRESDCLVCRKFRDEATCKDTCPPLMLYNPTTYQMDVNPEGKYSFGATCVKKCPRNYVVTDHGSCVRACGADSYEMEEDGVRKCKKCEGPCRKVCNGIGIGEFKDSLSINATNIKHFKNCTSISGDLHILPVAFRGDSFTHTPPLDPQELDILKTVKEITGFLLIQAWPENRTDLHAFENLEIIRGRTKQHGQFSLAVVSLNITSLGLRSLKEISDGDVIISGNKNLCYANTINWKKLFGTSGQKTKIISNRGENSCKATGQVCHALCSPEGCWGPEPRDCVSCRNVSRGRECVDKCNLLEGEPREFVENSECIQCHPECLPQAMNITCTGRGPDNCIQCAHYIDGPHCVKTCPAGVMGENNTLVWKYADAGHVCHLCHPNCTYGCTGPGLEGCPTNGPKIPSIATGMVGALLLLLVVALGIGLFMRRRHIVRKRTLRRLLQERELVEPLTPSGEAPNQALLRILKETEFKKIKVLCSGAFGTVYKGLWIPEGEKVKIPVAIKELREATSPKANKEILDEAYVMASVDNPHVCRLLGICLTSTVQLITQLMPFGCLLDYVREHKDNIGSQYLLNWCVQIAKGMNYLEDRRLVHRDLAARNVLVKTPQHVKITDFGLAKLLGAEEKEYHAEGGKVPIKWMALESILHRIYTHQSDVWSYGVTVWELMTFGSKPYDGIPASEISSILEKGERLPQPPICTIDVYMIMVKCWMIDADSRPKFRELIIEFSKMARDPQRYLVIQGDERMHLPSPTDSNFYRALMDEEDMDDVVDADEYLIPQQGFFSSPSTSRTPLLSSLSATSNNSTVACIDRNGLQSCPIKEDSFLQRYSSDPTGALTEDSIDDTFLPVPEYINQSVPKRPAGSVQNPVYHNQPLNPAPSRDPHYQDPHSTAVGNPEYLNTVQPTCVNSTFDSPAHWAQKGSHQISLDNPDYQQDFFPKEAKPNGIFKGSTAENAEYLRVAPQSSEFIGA
Description: as §15

ERBB2 (V777L) = target: T7, ERBB2 (V777L) (Homo sapiens, UniProt P04626, V777L); assay: as above; assay type: biochemical; details: room temperature 2 h, 10 concentration gradients
T7 construct: purchased Reaction Biology Corporation (commissioned test)
T7 sequence (P04626 23-1255 V777L): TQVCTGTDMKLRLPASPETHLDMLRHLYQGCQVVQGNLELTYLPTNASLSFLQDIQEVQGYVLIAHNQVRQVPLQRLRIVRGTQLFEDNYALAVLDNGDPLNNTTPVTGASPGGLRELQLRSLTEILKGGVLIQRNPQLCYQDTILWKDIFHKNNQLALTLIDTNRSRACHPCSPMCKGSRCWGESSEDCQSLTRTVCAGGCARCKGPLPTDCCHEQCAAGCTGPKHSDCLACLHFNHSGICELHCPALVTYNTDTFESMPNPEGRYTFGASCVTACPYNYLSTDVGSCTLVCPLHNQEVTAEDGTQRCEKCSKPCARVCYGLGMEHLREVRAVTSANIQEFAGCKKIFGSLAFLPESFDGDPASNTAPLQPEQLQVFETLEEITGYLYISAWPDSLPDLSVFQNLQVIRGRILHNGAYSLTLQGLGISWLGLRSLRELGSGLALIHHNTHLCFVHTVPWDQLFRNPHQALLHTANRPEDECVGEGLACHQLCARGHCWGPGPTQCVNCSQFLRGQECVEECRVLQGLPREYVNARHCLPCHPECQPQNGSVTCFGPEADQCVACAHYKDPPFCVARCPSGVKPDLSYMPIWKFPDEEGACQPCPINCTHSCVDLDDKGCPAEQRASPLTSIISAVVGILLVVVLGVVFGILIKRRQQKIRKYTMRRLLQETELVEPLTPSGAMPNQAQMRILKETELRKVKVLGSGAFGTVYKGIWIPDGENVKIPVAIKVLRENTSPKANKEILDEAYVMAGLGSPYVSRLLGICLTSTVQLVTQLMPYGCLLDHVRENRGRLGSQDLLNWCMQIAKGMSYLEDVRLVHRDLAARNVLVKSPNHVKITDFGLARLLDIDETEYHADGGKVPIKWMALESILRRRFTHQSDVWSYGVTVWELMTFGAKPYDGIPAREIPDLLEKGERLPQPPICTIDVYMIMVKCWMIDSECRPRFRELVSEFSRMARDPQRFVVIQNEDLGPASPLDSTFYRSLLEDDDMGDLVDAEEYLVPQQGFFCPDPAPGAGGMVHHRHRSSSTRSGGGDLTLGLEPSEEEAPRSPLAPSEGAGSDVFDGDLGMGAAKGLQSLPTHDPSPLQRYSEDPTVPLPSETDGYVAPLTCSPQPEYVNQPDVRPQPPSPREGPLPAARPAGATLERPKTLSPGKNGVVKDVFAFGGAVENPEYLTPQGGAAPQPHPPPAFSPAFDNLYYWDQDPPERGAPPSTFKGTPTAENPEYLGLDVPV
Description: as §15

EGFR (d746-750) = target: T8, EGFR (d746-750) (Homo sapiens, UniProt P00533, DEL746-750); assay: as above; assay type: biochemical; details: room temperature 2 h, 10 concentration gradients
T8 construct: purchased Reaction Biology Corporation (commissioned test)
Description: as §15

EGFR (A763_Y764insFQEA) = target: T9, EGFR (A763_Y764insFQEA) (Homo sapiens, UniProt P00533, INS763FQEA); assay: as above; assay type: biochemical; details: room temperature 2 h, 10 concentration gradients
T9 construct: purchased Reaction Biology Corporation (commissioned test)
Description: as §15

[4] = target: T10, EGFR (D770_N771insNPG/T790M) (Homo sapiens, UniProt P00533, INS770NPG/T790M); assay: as above; assay type: biochemical; details: room temperature 2 h, 10 concentration gradients
T10 construct: purchased Reaction Biology Corporation (commissioned test)
Description: as §15

ERBB2 (V777_G778insCG) = target: T11, ERBB2 (V777_G778insCG) (Homo sapiens, UniProt P04626, INS777CG); assay: as above; assay type: biochemical; details: room temperature 2 h, 10 concentration gradients
T11 construct: purchased Reaction Biology Corporation (commissioned test)
Description: as §15

EGFR (A763_Y764insFHEA) = target: T12, EGFR (A763_Y764insFHEA) (Homo sapiens, UniProt P00533, INS763FHEA); assay: as above; assay type: biochemical; details: room temperature 2 h, 10 concentration gradients
T12 construct: purchased Reaction Biology Corporation (commissioned test)
Description: as §15

EGFR (d747-749/A750P) = target: T13, EGFR (d747-749/A750P) (Homo sapiens, UniProt P00533, A750P/DEL747-749); assay: as above; assay type: biochemical; details: room temperature 2 h, 10 concentration gradients
T13 construct: purchased Reaction Biology Corporation (commissioned test)
Description: as §15

EGFR (D770GY) = target: T14, EGFR (D770GY) (Homo sapiens, UniProt P00533, D770Y/INS769G); assay: as above; assay type: biochemical; details: room temperature 2 h, 10 concentration gradients
T14 construct: purchased Reaction Biology Corporation (commissioned test)
Description: as §15

EGFR (L861Q) = target: T15, EGFR (L861Q) (Homo sapiens, UniProt P00533, L861Q); assay: as above; assay type: biochemical; details: room temperature 2 h, 10 concentration gradients
T15 construct: purchased Reaction Biology Corporation (commissioned test)
T15 sequence (P00533 25-1210 L861Q): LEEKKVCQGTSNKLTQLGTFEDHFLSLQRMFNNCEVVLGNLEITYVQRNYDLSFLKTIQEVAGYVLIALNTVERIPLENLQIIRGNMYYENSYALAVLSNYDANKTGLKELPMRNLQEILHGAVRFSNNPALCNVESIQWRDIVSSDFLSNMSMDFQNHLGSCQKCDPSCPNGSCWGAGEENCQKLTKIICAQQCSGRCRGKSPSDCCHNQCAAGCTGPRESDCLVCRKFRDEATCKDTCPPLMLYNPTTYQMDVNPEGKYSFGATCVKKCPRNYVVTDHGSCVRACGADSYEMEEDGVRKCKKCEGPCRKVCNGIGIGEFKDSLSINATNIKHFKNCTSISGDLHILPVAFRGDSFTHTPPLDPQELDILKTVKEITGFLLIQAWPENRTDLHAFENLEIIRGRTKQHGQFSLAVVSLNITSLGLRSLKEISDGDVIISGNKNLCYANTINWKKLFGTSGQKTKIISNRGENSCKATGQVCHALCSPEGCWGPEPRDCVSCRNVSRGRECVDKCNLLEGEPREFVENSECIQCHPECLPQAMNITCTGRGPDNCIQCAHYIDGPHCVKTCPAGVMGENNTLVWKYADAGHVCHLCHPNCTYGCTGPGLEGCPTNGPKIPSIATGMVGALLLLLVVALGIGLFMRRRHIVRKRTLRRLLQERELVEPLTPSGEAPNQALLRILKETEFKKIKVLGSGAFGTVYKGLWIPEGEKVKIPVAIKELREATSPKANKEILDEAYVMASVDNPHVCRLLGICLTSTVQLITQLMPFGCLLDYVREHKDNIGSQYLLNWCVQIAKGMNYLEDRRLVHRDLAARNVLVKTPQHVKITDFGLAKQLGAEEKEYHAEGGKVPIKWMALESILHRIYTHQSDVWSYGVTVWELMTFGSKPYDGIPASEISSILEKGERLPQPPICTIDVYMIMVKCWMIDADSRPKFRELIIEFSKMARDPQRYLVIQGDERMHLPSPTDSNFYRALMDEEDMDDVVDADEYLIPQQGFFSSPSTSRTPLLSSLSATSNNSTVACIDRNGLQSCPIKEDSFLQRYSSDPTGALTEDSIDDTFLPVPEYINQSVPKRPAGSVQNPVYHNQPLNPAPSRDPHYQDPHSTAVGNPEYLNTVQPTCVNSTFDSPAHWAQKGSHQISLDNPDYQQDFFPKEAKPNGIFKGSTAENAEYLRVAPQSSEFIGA
Description: as §15

EGFR (D761Y) = target: T16, EGFR (D761Y) (Homo sapiens, UniProt P00533, D761Y); assay: as above; assay type: biochemical; details: room temperature 2 h, 10 concentration gradients
T16 construct: purchased Reaction Biology Corporation (commissioned test)
Description: as §15

EGFR (G719D) = target: T17, EGFR (G719D) (Homo sapiens, UniProt P00533, G719D); assay: as above; assay type: biochemical; details: room temperature 2 h, 10 concentration gradients
T17 construct: purchased Reaction Biology Corporation (commissioned test)
Description: as §15

SMILES	IC50 (EGFR (D770_N771insNPG))	IC50 (ERBB2 (D769Y))	IC50 (EGFR (G719S))	IC50 (EGFR (G719C))	IC50 (ERBB2 (V777L))	IC50 (EGFR (A763_Y764insFQEA))	IC50 [4]	IC50 (ERBB2 (V777_G778insCG))	IC50 (EGFR (A763_Y764insFHEA))	IC50 (EGFR (D770GY))	IC50 (EGFR (L861Q))	IC50 (EGFR (D761Y))	IC50 (EGFR (G719D))	further results
C=CC(=O)Nc1cccc(-n2c(=O)c(-c3ccccc3)nc3cnc(Nc4ccc(N5CCN(C)CC5)cc4OC)nc32)c1 [Compound 1]	0.23 nM	0.35 nM	0.36 nM	0.51 nM	0.31 nM	0.29 nM	0.49 nM	0.22 nM	0.4 nM	–	–	–	–	IC50 (EGFR): 0.08 nM; GI50 (EGFR H773_V774insH BaF3): 5.42 nM; GI50 (EGFR L861Q BaF3): 0.98 nM; GI50 [1]: 1.63 nM; GI50 (EGFR G719A BaF3): 0.58 nM; GI50 [2]: 5.59 nM; GI50 [3]: 0.99 nM; IC50 (EGFR (L858R)): 0.17 nM; IC50 (EGFR (d746-750)): 0.84 nM; IC50 (EGFR (d747-749/A750P)): 0.29 nM
C=CC(=O)N1CCC(Oc2cc3c(Nc4ccc(Cl)c(Cl)c4F)ncnc3cc2OC)CC1 [Poziotinib]	–	0.21 nM	–	–	0.21 nM	–	–	0.09 nM	–	–	–	–	–	–
C=CC(=O)Nc1cc(Nc2ncc(C(=O)OC(C)C)c(-c3cn(C)c4ccccc34)n2)c(OC)cc1N(C)CCN(C)C [TAK788, Mobocertinib]	–	–	–	–	–	–	–	–	–	–	–	–	–	GI50 (EGFR H773_V774insH BaF3): 4.44 nM; GI50 (EGFR L861Q BaF3): 2.55 nM; GI50 [1]: 1.49 nM; GI50 (EGFR G719A BaF3): 4.66 nM; GI50 [2]: 4.73 nM; GI50 [3]: 1.53 nM
C=CC(=O)Nc1cccc(-n2c(=O)c(-c3ccccc3)nc3cnc(Nc4ccc(N(C)CCN(C)C)cc4OC)nc32)c1 [compound A]	0.52 nM	0.79 nM	1.45 nM	1.09 nM	0.78 nM	0.35 nM	0.67 nM	0.35 nM	0.67 nM	0.28 nM	2.05 nM	0.34 nM	2.19 nM	–
C=CC(=O)Nc1cccc(-n2c(=O)c(-c3ccccc3)nc3cnc(Nc4ccc(N5CCN(C)CC5)c(OC)c4)nc32)c1 [compound B]	1.23 nM	0.77 nM	0.97 nM	1.04 nM	2.05 nM	0.78 nM	1.89 nM	1.56 nM	1.56 nM	0.76 nM	1.67 nM	0.78 nM	0.82 nM	–
C=CC(=O)Nc1cccc(-n2c(=O)c(C3CCCCC3)nc3cnc(Nc4ccc(N5CCN(C)CC5)cc4OC)nc32)c1 [compound C]	3.67 nM	4.58 nM	2.75 nM	1.79 nM	1.63 nM	0.45 nM	2.47 nM	2.76 nM	0.94 nM	0.97 nM	0.93 nM	0.99 nM	3.78 nM	–
C=CC(=O)Nc1cccc(-n2c(=O)c(-c3ccc(F)cc3)nc3cnc(Nc4ccc(N5CCN(C)CC5)cc4OC)nc32)c1 [compound D]	2.78 nM	0.78 nM	3.02 nM	2.41 nM	1.87 nM	1.92 nM	0.99 nM	1.96 nM	0.57 nM	0.87 nM	1.04 nM	0.45 nM	2.91 nM	–
C=CC(=O)Nc1cccc(-n2c(=O)c(-c3ccc(OC)cc3)nc3cnc(Nc4ccc(N5CCN(C)CC5)cc4OC)nc32)c1 [compound E]	1.74 nM	2.59 nM	1.67 nM	1.64 nM	0.82 nM	2.37 nM	1.58 nM	3.78 nM	0.77 nM	1.01 nM	0.88 nM	0.62 nM	1.64 nM	–
